Entries after “also recorded” stand apart in the source; their conditions may differ.

Data on five compounds can be found in US12222275B2, “Methods and systems for particle characterisation by imaging free-floating particle movement in liquid enviornment” (VRIJE UNIVERSITEIT BRUSSEL, priority 2019, dated 2025).

Experiment [1] relates to C. albicans CAF2-1 wild-type strain. The experiment in a line: Optical nanomotion detection (ONMD), amphotericin B dose-response. The experiment is classed as cell-based, Candida albicans. An excerpt:
(§1) To track single cells, in the present example a cross-correlation image registration algorithm was used. The method was documented to efficiently track subtle modifications of keratin networks in living cells and displacements of myoblasts. The algorithm is based on the initial estimation of the cross-correlation peak between the first and every subsequent frame. […] Our program calculates the cell displacement for each frame and saves the trajectories of tracked cells as well as the root mean square of the displacement to an MS Excel file.
(§2) The cellular x-y movements were monitored by recording 12 s long movies (1000 frames) taken at a magnification of 400× (FIG. 13). By periodically recording these movies, temporal behavior of the cells was characterized as a function of different chemical and physical stimuli (FIG. 13A-B). To track the cellular movements of single cells, we used a cross-correlation image registration algorithm. The algorithm is based on the initial estimation of the cross-correlation peak between the first and every subsequent frame. It provides a numerical value for the image translation with a sub-pixel (sub-μm) resolution. The cell displacement for each frame, the trajectories of tracked cells (FIG. 13C) as well as the root mean square of the total displacement (FIG. 13F) were calculated. Single cell nanomotions were characterized by plotting the distribution of the displacements per frame as a violin plot (FIG. 13D). The movements of the set of 20 cells were characterized by plotting grouped cellular displacements per frame as violin plots and the total displacements of 20 cells over 1000 frames as box-and-whisker plots (FIG. 13E).
(§3) Ten μl of each yeast cell culture was dispensed in one of the microwells, using a 4 Well FulTrac micro-Insert (ibidi, Germany) in an imaging micro-dish (Ibidi, Germany). The yeast cells were allowed to sediment for a period of 10 min before starting the measurement. The movement of cells was observed by taking movies of 1000 frames with a framerate of 84 fps using an EMCCD camera (Andor iXon, Oxford Instruments) using a Nikon TE-2000 microscope with a 40× objective. The Petri dish was kept at 30° C. using a microscope stage top incubator (ibidi, Germany).
The effect of ethanol on the viability of the cells was compared with cells grown in YPD medium as a reference. Therefore, first cell nanomotion videos were recorded and next (after approximately 1 min), 200 μl of ethanol (70% v/v) was added to the top chamber of the 4 micro-Insert wells. Videos were recorded every hour during a period of 5 h. Caspofungin, amphotericin B and fluconazole were used as antifungals in the antifungal susceptibility testing, i.e. to assess their effect on cell viability. Before starting the treatment with the antifungal, reference (no treatment) videos were recorded of yeast cells in YPD medium (time=0 h). Then (at time=1 min) 200 μl of a certain concentration of antifungal was added to the chamber (200 μl) above the 4 microwells. Measurements were taken every hour during a period of 5 h. […]
(§4) The optical nanomotion detection algorithm calculates the cell displacement for each frame and saves the trajectories of tracked cells as well as the root mean square of the displacement to a MS Excel file. […] The Python package nd2 reader (Verweij R, Online: http://www.lighthacking.nl/nd2reader/) was employed to import the videos in the ND2 Nikon format.

Experiment [2] relates to C. albicans DSY294. Description: Optical nanomotion detection (ONMD) of free yeast cells, antifungal susceptibility test. The format is cell-based, Candida albicans.
Text: as §1, §2, §3
(§5) The effect of ethanol on the viability of the cells was compared with cells grown in YPD medium as a reference. Therefore, first cell nanomotion videos were recorded and next (after approximately 1 min), 200 μl of ethanol (70% v/v) was added to the top chamber of the 4 micro-Insert wells. Videos were recorded every hour during a period of 5 h. Caspofungin, amphotericin B and fluconazole were used as antifungals in the antifungal susceptibility testing, i.e. to assess their effect on cell viability. Before starting the treatment with the antifungal, reference (no treatment) videos were recorded of yeast cells in YPD medium (time=0 h). Then (at time=1 min) 200 μl of a certain concentration of antifungal was added to the chamber (200 μl) above the 4 microwells. Measurements were taken every hour during a period of 5 h. As abiotic reference particles, silica microbeads (monodisperse silica standard, Whitehouse Scientific) with a diameter of 3 μm were used. The beads were dissolved in YPD medium and the measurements were performed at 30° C.
(§6) The optical nanomotion detection algorithm calculates the cell displacement for each frame and saves the trajectories of tracked cells as well as the root mean square of the displacement to a MS Excel file. The main part of the program is based on the algorithm of Guizar-Sicairos et al.[14], ported from Matlab to Python in the open source image processing library sci-kit image. The Python package nd2 reader (Verweij R, Online: http://www.lighthacking.nl/nd2reader/) was employed to import the videos in the ND2 Nikon format.

For experiment [3], the system named is Candida lusitaniae DSY4590. The note with it: FKS1 S638Y, erg4; ref [7] unpublished; cited from earlier work.
Experiment [4] deals with C. albicans. The note with it: cited from earlier work.
Experiment [5] concerns C. albicans DSY4614 (candin-resistant clinical strain). Description: Optical nanomotion detection (ONMD) of free yeast cells, antifungal susceptibility test. The format is cell-based, Candida albicans.
Text: as §1, §2, §3, §5, §6

Experiment [6] deals with C. albicans DSY1024 (hypersusceptible, mutant for efflux systems). The experiment is described as above. The format is cell-based, Candida albicans.
Text: as §1, §2, §3, §5, §6

Experiment [7] relates to C. lusitaniae DSY4590 (resistant clinical strain). The experiment in a line: Optical nanomotion detection (ONMD) of free yeast cells. The note with it: caspofungin 10 μg/ml; FIG. 4b left panel. The format is cell-based, Candida lusitaniae.
Text: as §1, §2
(§7) Ten μl of each yeast cell culture was dispensed in one of the microwells, using a 4 Well FulTrac micro-Insert (ibidi, Germany) in an imaging micro-dish (Ibidi, Germany). The yeast cells were allowed to sediment for a period of 10 min before starting the measurement. […]
(§8) The effect of ethanol on the viability of the cells was compared with cells grown in YPD medium as a reference. Therefore, first cell nanomotion videos were recorded and next (after approximately 1 min), 200 μl of ethanol (70% v/v) was added to the top chamber of the 4 micro-Insert wells. Videos were recorded every hour during a period of 5 h. […] Before starting the treatment with the antifungal, reference (no treatment) videos were recorded of yeast cells in YPD medium (time=0 h). […]
as §4

Experiment [8] relates to C. lusitaniae DSY4606. The description is as above. The format is cell-based, Candida lusitaniae.
Text: as §1, §2, §7, §8, §4

For experiment [9], the system named is S. cerevisiae BY4742. The description is as above. The format is cell-based, Saccharomyces cerevisiae.
Text: as §1, §2, §3, §5, §6

Experiment [10] has as its system C. glabrata DSY562. The description is as above. The experiment is classed as cell-based, Candida glabrata.
Text: as §1, §2, §7, §8, §4

Experiment [11] relates to S. cerevisiae. The conditions noted are these: cited from earlier work.
The subject of experiment [12] is S. cerevisiae. The conditions noted are these: cited from earlier work. This is another data set of the same source.
Experiment [13] concerns osteoblasts. The note with it: AFM-cantilever method; cited from earlier work.
Setting [14] is: caspofungin treated, pooled from 1-5-hour treatments, FIG. 7d.
Setting [15] is: caspofungin 10 μg/ml, surface-attached cells, FIG. 6, 18F-K.
Where [16] appears, read: ethanol 70%, ten minutes after addition.
Where [17] appears, read: ethanol 70% v/v, ten minutes after addition and diffusive mixing, t-test.
Setting [18] is: ethanol 70%, Wilcoxon test, FIG. 15.

With `C[C@@H]1[C@H](O)[C@@H](C)/C=C/C=C/C=C/C=C/C=C/C=C/C=C/[C@H](O[C@@H]2O[C@H](C)[C@@H](O)[C@H](N)[C@@H]2O)C[C@@H]2O[C@](O)(C[C@@H](O)C[C@@H](O)[C@H](O)CC[C@@H](O)C[C@@H](O)CC(=O)O[C@H]1C)C[C@H](O)[C@H]2C(=O)O` [amphotericin B], the “concentration at which the cellular nanomotion is increased, as multiple of MIC” value in [1] and in experiment [2] was “around 10 times the MIC” each time. The “concentration at which the mean total displacement increased” value was 10 µg/mL in [1] (after 1 h treatment, FIG. 2g) and 4 µg/mL in experiment [1] (after 2 h treatment, FIG. 2h). Moreover, in experiment [1] (concentrations above 10 μg/ml (1 h) or 4 μg/ml (2 h)), the “mean total displacement at higher drug concentrations” value is reported as “decreased”. In addition, the “MIC value detected by ONMD (lowest concentration where a change in nanomotion can be observed)” value in [1] (total displacement of 20 cells, 'this strain') fell in the range of 1 to 4 µg/mL. In addition, in [2] (after 1 h treatment, FIG. 16F), the “concentration at which the total displacement shows an increase” value came to 10 µg/mL. Moreover, in [2] (after 2 h treatment, FIG. 16G), the “increase of total displacement after 2 h treatment” value is “the increase is reduced”. Besides, the “nanomotion signal after 1 h treatment” value in experiment [2] (amphotericin B 100 μg/ml, 1 h, FIG. 2d) is listed as “decreased to values close to those recorded on dead cells”. For the same compound, in experiment [2] (amphotericin B 100 μg/ml, t-test, FIG. 2d), the “time of treatment after which a significant decrease in the mean total displacement was detected” value amounted to 1 h. Also, the “time of treatment after which a significant decrease in cellular displacements and total displacement was detected” value in experiment [2] (amphotericin B 500 μg/ml, FIG. 16A, 20A) is 1 h. In addition, the “cellular nanomotion after 1 h treatment, whole set of 20 cells” value in experiment [2] (amphotericin B at a high concentration (500 μg/ml), 1 h, FIG. 20A) is given as “decreased to values close to those recorded on dead cells”. For the same compound, the “susceptibility of the strain (characteristics)” value in experiment [3] was “FKS1, S638Y, erg4 Resistant”. Also, in [4] ('this strain' (CAF2-1 or DSY294, not clear)), the “reported amphotericin B MIC value, classical microtitre plate method” value is 0.3 µg/mL. Further, in experiment [4] (C. albicans DSY strains), the “reported amphotericin B MIC value” is 0.5 µg/mL.

Consider `CC[C@H](C)C[C@H](C)CCCCCCCCC(=O)N[C@H]1C[C@@H](O)[C@@H](NCCN)NC(=O)[C@@H]2[C@@H](O)CCN2C(=O)[C@H]([C@H](O)CCN)NC(=O)[C@H]([C@H](O)[C@@H](O)c2ccc(O)cc2)NC(=O)[C@@H]2C[C@@H](O)CN2C(=O)[C@H]([C@@H](C)O)NC1=O` [caspofungin], for which, in experiment [5] (caspofungin 10 μg/ml, FIG. 2e, 16E), the effect on nanomotion result is recorded as “did not affect the nanomotion”. Moreover, the “total displacement of cells attached to concanavalin A coated glass, treated versus untreated” value was “no significant decrease of the total displacement” in experiment [5] (caspofungin 10 μg/ml, surface-attached cells, FIG. 6); “no significant decrease of the total displacement; also recorded: no significant difference” in [2] (setting [15]); “no significant decrease of the total displacement; also recorded: no significant difference” in experiment [6] (setting [15]). Besides, the “critical frequency (fcrit) distribution of treated cells” value in experiment [5] (setting [14]) and in experiment [2] (setting [14]) was “broadening of their fcrit” throughout. Besides, the “time of treatment after which a significant decrease in (mean) total displacement was detected” value in experiment [2] (caspofungin 100 μg/ml, FIG. 2d, 16B) turned out to be 1 h. Moreover, the “killing of cells judged by nanomotion” value in [6] (caspofungin 10 μg/ml, FIG. 2f, 16D) is “did kill”; in experiment [8] (caspofungin 10 μg/ml, FIG. 4b right panel) it was “killed”. Besides, the “additional fcrit of treated cells” value in experiment [6] (setting [14]) is “around 2 Hz”. Further, the “critical frequency (fcrit) distribution of treated cells, extent of broadening” value in experiment [6] (setting [14]) was “most extended”. In addition, the “effect of treatment on nanomotion” value in [7] is “not affected”. Besides, the “time of treatment after which a significant decrease of the total displacement was observed” value in experiment [9] (caspofungin 10 μg/ml, FIG. 5a) is recorded as 3 h. Also, the “time of treatment after which the cells were dead (nanomotion AFST)” value in [10] (caspofungin, FIG. 4a) came out at 2 h.

Consider `CCO` [ethanol], for which, in experiment [11], the “higher ethanol concentrations that impair the cell membrane integrity, eventually apoptotic cell death” value was over 10%. In addition, the “moderate ethanol concentrations that affect the growth rate” value in experiment [11] was 5-7%. Also, the “time of treatment after which a significant decrease of the total displacement was measured” value in experiment [2] (ethanol 70% v/v, t-test, FIG. 2c) was determined as 60 min. Besides, the “displacements in the set of 20 cells” value in experiment [2] (setting [16]), in experiment [8] (setting [16]), in experiment [9] (setting [16]) and in experiment [10] (setting [16]) was “reduction of the displacements” in each case. In addition, the “change of total displacement” value in experiment [8] (setting [17]), in experiment [9] (setting [17]) and in [10] (setting [17]) was “significant (t-test) decrease” in each case. Further, the “time after which a significant decrease of the total displacement was observed” value in experiment [9] (setting [18]) and in [10] (setting [18]) was 60 min in each case.

For `OC(Cn1cncn1)(Cn1cncn1)c1ccc(F)cc1F` [fluconazole], the “fluconazole MIC value” in experiment [12] is 1 to 8 µg/mL. In experiment [2] (fluconazole 400 μg/ml, FIG. 2d, 16C), the “time of treatment after which a significant decrease in (mean) total displacement was detected” value was 1 h. Besides, in [9] (fluconazole 400 μg/ml, 1 h, FIG. 5b), the “effect on total displacement after 1 h of treatment” value was “no effect”. For the same compound, the “time of treatment after which a significant decrease in total displacement was obvious” value in [9] (fluconazole 400 μg/ml, FIG. 5b) is recorded as 5 h.

As to cytochalasin, the “cellular movement after depolymerizing the actin cytoskeleton” value in experiment [13] was “reduced cellular movement”.
